Data on 16 molecules can be found in patent publication US8691822B2, “Dihydropteridinone derivatives, preparation process and pharmaceutical use thereof” (Jiangsu Hengrui Medicine Co., Ltd., priority 2009, dated 2014).

Like-named read-outs stand apart in the source and are kept apart here.

Series [1] relates to human cervix cancer cells Hela. Put plainly: Plk Cell Proliferation Inhibition Assay (CCK8, 72 hours). It is filed as cell-based. The following applies: Hela cells highly expressing Plk. The text has this: The following in vitro assay is to determine the activity of the compounds of the present invention for inhibiting the proliferation of human cervix cancer cells Hela, which has high expression of Plk.
The in vitro cellular assay described here is to determine the activity of the tested compounds for inhibiting the proliferation of cancer cells, which has high expression of Plk. The activity is represented by the […]. The general procedures for the assay are given as follows: The Hela cells highly expressing Plk (Institute of biochemistry and cell biology) were seeded to 96-well cell culture plate at a suitable concentration (exp 3000 cells/ml medium). The cells then were cultured in carbon dioxide (CO2) incubator and grew overnight. Then, the cell culture medium was replaced by fresh one with tested compounds added in it at serial concentrations (general 7 to 9 concentrations). Then the cells were put back to the incubator and cultured for continuous 72 hours. 72 hours later, the activity of the tested compounds for inhibiting the cell proliferation was determined by using CCK8 (cell counting kit-8, Dojindo, NO:CK04) method. IC50 value on tested cells were calculated by the data of inhibition rates of serial concentrations of the tested compounds.

Series [2] deals with xenografts of HT-116 human colon cancer. The series can be described thus: Therapeutic effects against xenografts of HT-116 human colon cancer in nude mice. The settings on record: nude mice bearing HT-116 xenografts. The class given is in vivo. On the procedure: The therapeutic effect of Example 1 against xenografts of HT-116 human colon cancer in nude mice was estimated.
Preparation method: the compound of Example 1 was prepared to corresponding concentration by using normal saline.
BALB/cA-nude mice, 6 to 7 weeks old, ♀, purchased from Slaccas Experimental Animal LTD., CO.
Nude mice were hypodermic inoculated HT-116 human colon cancer cell. After tumors grew to 60-150 mm^3, mice were randomly divided into teams (d0).
The volume of tumors and the weigh of the mice were measured and recorded for 2-3 times per week.
The calculation formula of the volume of tumor (V) is: V=½×a×b^2, a: length of tumor, b: width of tumor.
(A xenograft is tissue or cells of one species grown in another, often human tumour cells in immunodeficient mice.)

A short description of series [3]: Pharmacokinetics assay in rats (plasma concentration by LC/MS/MS). It is filed as in vivo. The following applies: SD rats, 25 mg/kg; for AUC: read-out: Area Under Curve AUC; for half-life: read-out: Half-Life t½ (converted); for MRT: read-out: Mean Residence Time MRT. As to the method:
The compound 37 of the present invention was administrated intravenous injection or intragastrically to rats to determine the drug concentration in plasma at different time points by LC/MS/MS method. The pharmacokinetic behavior of the compounds of the present invention was studied and evaluated in rats.
The right amount of tested compound was dissolved in 0.5 mL of DMSO, added with 1.5 mL of 0.1 M HCl, then diluted with normal saline to 2.5 mg/mL of suspension before use.
8 Healthy adult adult SD rats, male and female in half, were divided into 2 groups. After an overnight fast, the rats were administered intragastrically or administered via tail intravenous injection at a dose of 25.0 mg/kg.
25 μL of rat plasmas taken at various time points after administration were mixed with 20 μL of internal standard solution and 150 μL methanol for 3 minutes by using a vortexer and the mixture was centrifuged for 10 minutes at 13,500 rpm. 5 μL of the supernatant was analyzed by LC-MS/MS.
Plasma concentration was used as the abscissa, the ratio of chromatographic peak area between the sample and internal standard was used as the ordinate, the linear regression was carried out by the weighted least square method (w=1/x^2). The main pharmacokinetic parameters were calculated by DAS 2.0 software.

The mark [4] stands for this setting: both sexes, rat, plasma, po, intragastric administration.
Where [5] appears, read: both sexes, rat, plasma, intravenous injection.

With `CC[C@@H]1C(=O)N(C)c2cnc(Nc3ccc(C(=O)NC4CCN(C)CC4)c4c3OCC4)nc2N1C1CCCC1` [Example 1, 7-[[(7R)-8-Cyclopentyl-7-ethyl-5-methyl-6-oxo-7H-pteridin-2-yl]amino]-N-(1-methyl-piperidyl)-2,3-dihydrobenzofuran-4-carboxamide], half-maximal inhibition in series [1] (IC50) was put at 0.9 nM. Further, in series [2], the “toxicity (in words)” value is recorded as “less toxity”. Take `CC[C@@H]1C(=O)N(C)c2cnc(Nc3ccc(C(=O)NC[C@H]4CN5CCC[C@H]5CO4)c4c3OCC4)nc2N1C1CCCC1` [Example 26, N-[[(3S,8aS)-3,4,6,7,8,8a-Hexahydro-1H-pyrrolo[2,1-c][1,4]oxazin-3-yl]methyl]-7-[[(7R)-8-cyclopentyl-7-ethyl-5-methyl-6-oxo-7H-pteridin-2-yl]amino]-2,3-dihydrobenzofuran-4-carboxamide]: in series [1], the IC50 was determined as 3 nM. The same measure, in the same setting: for `CC[C@@H]1C(=O)N(C)c2cnc(Nc3ccc(C(=O)NC[C@H]4CN5CCC[C@@H]5CO4)c4c3OCC4)nc2N1C1CCCC1` [Example 27, N-[[(3S,8aR)-3,4,6,7,8,8a-Hexahydro-1H-pyrrolo[2,1-c][1,4]oxazin-3-yl]methyl]-7-[[(7R)-8-cyclopentyl-7-ethyl-5-methyl-6-oxo-7H-pteridin-2-yl]amino]-2,3-dihydrobenzofuran-4-carboxamide] the value was 1 nM; for `CC[C@@H]1C(=O)N(C)c2cnc(Nc3ccc(C(=O)NC[C@@H]4CN5CCC[C@@H]5CO4)c4c3OCC4)nc2N1C1CCCC1` [Example 28, N-[[(3R,8aR)-3,4,6,7,8,8a-Hexahydro-1H-pyrrolo[2,1-c][1,4]oxazin-3-yl]methyl]-7-[[(7R)-8-cyclopentyl-7-ethyl-5-methyl-6-oxo-7H-pteridin-2-yl]amino]-2,3-dihydrobenzofuran-4-carboxamide], 3 nM; for `CC[C@@H]1C(=O)N(C)c2cnc(Nc3ccc(C(=O)NC4CCN(C)CC4)c4c3OC(CN(C)C)C4)nc2N1C1CCCC1` (stereo partly drawn) [Example 29, 7-[[(7R)-8-Cyclopentyl-7-ethyl-5-methyl-6-oxo-7H-pteridin-2-yl]amino]-2-(dimethylaminomethyl)-N-(1-methyl-4-piperidyl)-2,3-dihydrobenzofuran-4-carboxamide], 30 nM. Still for that read-out and setting: the same measure for `CC[C@@H]1C(=O)N(C)c2cnc(Nc3ccc(C(=O)NC4CCN(C)CC4)c4c3OC(C)C4)nc2N1C1CCCC1` (stereo partly drawn) [Example 30, 7-[[(7R)-8-Cyclopentyl-7-ethyl-5-methyl-6-oxo-7H-pteridin-2-yl]amino]-2-methyl-N-(1-methyl-4-piperidyl)-2,3-dihydrobenzofuran-4-carboxamide]: 4 nM; for `CC[C@@H]1C(=O)N(C)c2cnc(Nc3ccc(C(=O)NC[C@H](O)CN4CCN(C)CC4)c4c3OCC4)nc2N1C(C)C` [Example 32, 7-[[(7R)-7-Ethyl-8-isopropyl-5-methyl-6-oxo-7H-pteridin-2-yl]amino]-N-[(2S)-2-hydroxy-3-(4-methylpiperazin-1-yl)propyl]-2,3-dihydrobenzofuran-4-carboxamide]: 9 nM. In series [1], `CC[C@@H]1C(=O)N(C)c2cnc(Nc3ccc(C(=O)NC[C@@H](O)CN4CCN(C)CC4)c4c3OCC4)nc2N1C(C)C` [Example 33, 7-[[(7R)-7-Ethyl-8-isopropyl-5-methyl-6-oxo-7H-pteridin-2-yl]amino]-N-[(2R)-2-hydroxy-3-(4-methylpiperazin-1-yl)propyl]-2,3-dihydrobenzofuran-4-carboxamide] gave an IC50 of 7 nM. In series [1], `CC[C@@H]1C(=O)N(C)c2cnc(Nc3ccc(C(=O)N[C@H]4CC[C@H](N5CCN(CC6CC6)CC5)CC4)c4c3OCC4)nc2N1C1CCCC1` [Example 34, 7-[[(7R)-8-Cyclopentyl-7-ethyl-5-methyl-6-oxo-7H-pteridin-2-yl]amino]-N-[(trans)-4-[4-(cyclopropylmethyl)piperazin-1-yl]cyclohexyl]-2,3-dihydrobenzofuran-4-carboxamide] gave an IC50 of 0.7 nM.

In series [1], `CC[C@@H]1C(=O)N(C)c2cnc(Nc3ccc(C(=O)NC[C@@H](CN4CCN(CC5CC5)CC4)OC)c4c3OCC4)nc2N1C1CCCC1` [Example 35, 7-[[(7R)-8-Cyclopentyl-7-ethyl-5-methyl-6-oxo-7H-pteridin-2-yl]amino]-N-[(2S)-3-[4-(cyclopropylmethyl)piperazin-1-yl]-2-methoxy-propyl]-2,3-dihydrobenzofuran-4-carboxamide] had a half-inhibitory concentration (IC50) of 2 nM. The same measure, in the same setting: for `CC[C@@H]1C(=O)N(C)c2cnc(Nc3ccc(C(=O)NC[C@@H](CN4CCN(CC5CC5)CC4)OC)c4c3OCC4)nc2N1C(C)C` [Example 36, N-[(2S)-3-[4-(Cyclopropylmethyl)piperazin-1-yl]-2-methoxy-propyl]-7-[[(7R)-7-ethyl-8-isopropyl-5-methyl-6-oxo-7H-pteridin-2-yl]amino]-2,3-dihydrobenzofuran-4-carboxamide] the value was 7 nM. `CC[C@@H]1C(=O)N(C)c2cnc(Nc3ccc(C(=O)N[C@H]4CC[C@H](N5CCN(CC6CC6)CC5)CC4)c4c3OCC4)nc2N1C(C)C` [Example 37, N-[(trans)-4-[4-(Cyclopropylmethyl)piperazin-1-yl]cyclohexyl]-7-[[(7R)-7-ethyl-8-isopropyl-5-methyl-6-oxo-7H-pteridin-2-yl]amino]-2,3-dihydrobenzofuran-4-carboxamide] displayed an IC50 in series [1] of 0.7 nM. In addition, in series [3] (intravenous injection), the “Clearance CL/F” value was found to be 5.5 ± 0.5 mL/min/kg. The bioavailability in series [3] (both sexes, rat, plasma, oral, intragastric vs intravenous, read-out: oral bioavailability F) came out at 59.4%. The Vd/F in series [3] (both sexes, rat, plasma, po, intragastric administration, read-out: Apparent Distribution Volume Vz/F) worked out at 13.6 ± 1 L/kg. Also, in series [3] (setting [4]), the AUC amounted to 45600 ± 9230 ng·h/mL, the half-life was 17.2 ± 4.4 h and the MRT was determined as 26.1 ± 5 h. In addition, in series [3] (both sexes, rat, plasma, po, intragastric administration, read-out: Clearance CL/F (converted)), the CL/F was 9.5 mL/min/kg. In addition, the Cmax in series [3] (both sexes, rat, plasma, po, intragastric administration, read-out: Plasma Conc. Cmax) was 1860 ± 150 ng/mL. In series [3] (setting [5]), the AUC amounted to 76700 ± 6200 ng·h/mL, the half-life was 17.3 ± 3.3 h and the MRT is 22.8 ± 4.3 h. Regarding `CC[C@@H]1C(=O)N(C)c2cnc(Nc3ccc(C(=O)NC[C@@H](CN4CCN(C)CC4)OC)c4c3OCC4)nc2N1C1CCCC1` [Example 38, 7-[[(7R)-8-Cyclopentyl-7-ethyl-5-methyl-6-oxo-7H-pteridin-2-yl]amino]-N-[(2S)-2-methoxy-3-(4-methylpiperazin-1-yl)propyl]-2,3-dihydrobenzofuran-4-carboxamide], in series [1], half-maximal inhibition (IC50) was put at 2 nM.

In turn, `CC[C@@H]1C(=O)N(C)c2cnc(Nc3ccc(C(=O)NC[C@@H](CN4CCN(C)CC4)OC)c4c3OCC4)nc2N1C(C)C` [Example 39, 7-[[(7R)-7-Ethyl-8-isopropyl-5-methyl-6-oxo-7H-pteridin-2-yl]amino]-N-[(2S)-2-methoxy-3-(4-methylpiperazin-1-yl)propyl]-2,3-dihydrobenzofuran-4-carboxamide] displayed an IC50 in series [1] of 6 nM. In series [1], `CC[C@@H]1C(=O)N(C)c2cnc(Nc3ccc(C(=O)NC4CCN(C)CC4)c4c3OC(COC)C4)nc2N1C1CCCC1` (stereo partly drawn) [Example 40, 7-[[(7R)-8-Cyclopentyl-7-ethyl-5-methyl-6-oxo-7H-pteridin-2-yl]amino]-2-(methoxymethyl)-N-(1-methyl-4-piperidyl)-2,3-dihydrobenzofuran-4-carboxamide] had an IC50 of 2 nM. The molecule `CC[C@@H]1C(=O)N(C)c2cnc(Nc3ccc(C(=O)N[C@H]4CC[C@@H](N5CCN(CC6CC6)CC5)CC4)c4c3OCC4)nc2N1C(C)C` [Example 44, N-[(cis)-4-[4-(Cyclopropylmethyl)piperazin-1-yl]cyclohexyl]-7-[[(7R)-7-ethyl-8-isopropyl-5-methyl-6-oxo-7H-pteridin-2-yl]amino]-2,3-dihydrobenzofuran-4-carboxamide] had an IC50 in series [1] of 5 nM.

A word on the IC50: it is the concentration that inhibits the measured activity by half. The low end stands for inhibition by little substance, the high end for a need for much substance. In general, bioavailability refers to the share of a dose that reaches the circulation, judged against a reference dose that is usually intravenous. As usually defined, the AUC is concentration integrated over time. As a reminder, the half-life is how long it takes for the measured level to halve. A word on the MRT: it is the average time that molecules of a dose stay in the body. Broadly, the Cmax is the peak of the concentration-time curve.
